The values that follow come from ChEMBL document CHEMBL1649473, “Crystal structure of Bacillus anthracis dihydrofolate reductase with the dihydrophthalazine-based trimethoprim derivative RAB1 provides a structural explanation of potency and selectivity” (Antimicrob Agents Chemother, 2009).

Each structure is given as a SMILES string.

For assay [1], the target named is T1, Dihydrofolate reductase (Bacillus anthracis, UniProt Q81R22).
T1 sequence (Q81R22 whole entry): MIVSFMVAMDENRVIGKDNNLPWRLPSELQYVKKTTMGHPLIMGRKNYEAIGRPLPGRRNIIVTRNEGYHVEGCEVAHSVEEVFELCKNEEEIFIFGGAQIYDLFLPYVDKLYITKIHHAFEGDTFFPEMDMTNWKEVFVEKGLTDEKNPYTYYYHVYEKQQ
Description: Inhibition of Bacillus anthracis DHFR.

Assay [2] concerns Bacillus anthracis. The experiment in a line: Antibacterial activity against Bacillus anthracis. The class given is functional.
Assay [3] deals with T2, Dihydrofolate reductase (Homo sapiens, UniProt P00374).
T2 sequence (P00374 whole entry): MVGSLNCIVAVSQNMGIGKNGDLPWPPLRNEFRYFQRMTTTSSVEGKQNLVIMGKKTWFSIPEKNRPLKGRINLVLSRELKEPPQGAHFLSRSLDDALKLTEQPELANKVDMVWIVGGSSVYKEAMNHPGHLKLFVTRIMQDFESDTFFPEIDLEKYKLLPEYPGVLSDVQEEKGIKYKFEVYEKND
Description: Inhibition of human DHFR.

One may read the IC50 as the midpoint of a concentration-inhibition curve. Low values mean inhibition by little substance, high ones a need for much substance. In assay [1], `C=CC(=O)N1N=Cc2ccccc2C1CCC` (stereo unspecified) gave an IC50 of 46 nM.

In assay [1], `CCCC[C@H]1c2ccccc2C=NN1C(=O)/C=C/c1cc(Cc2cnc(N)nc2N)cc(OC)c1OC` displayed an IC50 of 170 nM. Same read-out and setting: in the case of `CC[C@H]1c2ccccc2C=NN1C(=O)/C=C/c1cc(Cc2cnc(N)nc2N)cc(OC)c1OC` it was 96 nM. Broadly, the MIC is the least concentration at which growth counts as inhibited. Read a low MIC as inhibition by little substance. Take `CCC[C@H]1c2ccccc2C=NN1C(=O)/C=C/c1cc(Cc2cnc(N)nc2N)cc(OC)c1OC`: the MIC in assay [2] was not above 12.8 µg/mL. The values for the IC50 in assay [3] and in assay [1] were 110000 nM and 54 nM, respectively.
